In patent US6759234B1, “Compositions and methods for administering to humans, peptides capable of down regulating an antigen specific immune response” (Immulogic Pharmaceutical Corporation, priority 1994, dated 2004):
Ends that are not written are not given here.

System: IgG and IgE antibodies to Fel d I, peptide X and peptide Y
Assay: Protocol P92-01 Phase I antibody studies and skin testing with the peptides (antigenicity)
Assay type: in vivo, human cat-allergic subjects
Settings: Week 8
Description: This Phase I, open-label, dose-escalating safety study was conducted to determine the safety of the administration of the peptide X (SEQ ID NO 1) and peptide Y (SEQ ID NO 2). The antigenicity of the components was also evaluated, as was the activity of the peptides in altering skin test sensitivity.
Safety was assessed by evaluations of clinical laboratory parameters, physical examination, antibody studies and adverse experiences. Activity was assessed by analysis of skin testing. Prick and intradermal skin testing with both affinity purified native Fel d I and the peptides were performed one week prior to, and two and six weeks following the treatment period. Sixteen patients were treated with peptides X and Y during the study. […] Adverse events recorded with the trial were typical of those seen in open label allergy studies. Patients were all cat allergic individuals in this trial and tolerated dose orders of magnitude higher than can be achieved with conventional immunotherapy.

Sequence	skin test reaction to the peptide in a single patient
KALPVVLENARILKNCVDAKMTEEDKE [peptide Y]	delayed local reaction
KRDVDLFLTGTPDEYVEQVAQYKALPV [peptide X]	substantial skin test reaction
